Measured values published in patent publication US20090317372A1, “SMALL MOLECULES FOR THE REDUCTION OF HIGH BLOOD GLUCOSE LEVEL” (priority 2008, published 2009).

How the values were obtained:
ob/ob mice = experiment: Glucose tolerance test with ob/ob mice; type: in vivo
Protocol: In this experiment, 43 days old ob/ob mice weighing 40.3±1.8-g on average were used. One group of mice (5 animals) remained untreated for the subsequent 14 days. Two other groups of mice (each including 5 animals) were treated on each day for 13 days with 4.5-mg/kg dose of CCcompound1. On the 14th day the first group received only i.p. injection of glucose (3-g/kg) (first column in TABLE 13); the second group first received s.c. injection of CCcompound1, followed six hours later by i.p. injection of glucose (3-g/kg) (second column in TABLE 13); the third group first received s.c. injection of CCcompound1, followed 45 min later by i.p. injection of glucose (3-g/kg) (third column in TABLE 13). In each case, blood was first drawn 1-5 min prior to the administration of glucose, followed by drawing blood samples at 30 min, 60 min, 120 min and 180 min. The results shown in TABLE 13 indicate that CCcompound1 can effectively lower blood glucose level even after administration of a large amount of glucose. […] This probably means that the effect of CCcompound1 on blood glucose level requires its physical presence in the circulation and is not mediated by a secondary mechanism.

mice with PC-3 tumor = experiment: Glucose tolerance test in the PC-3 tumor model, chronic and acute CCcompound1; type: in vivo
Protocol: (§1) The experimental PC-3 human tumors were developed in a homozygous line of C.B.-171 cr scid/scid adult female mice that were kept at specified pathogen free (SPF) hygienic level. Treatments with CCcompound1 (4.5 mg/kg) were started on day 12 after tumor implantation and conducted for 5+5 days with 2 treatment-free days inserted between the 2 series of treatments. A control group (10 mice) received no treatment, while another group (10 mice) received 4.5-mg/kg of CCcompound1 once every day between days 12-24. The results, shown in TABLE 8, indicate that between days 12 and 24 after tumor implantation, the prostate tumor caused about 6.9-g loss in lean body weight (4.1-g loss in total body weight). In contrast, animals treated with CCcompound1 actually gained 6.3-g lean body weight.
Tumors and cachexia are usually associated with insulin resistance. […] Both groups were starved for 14 hours and divided into two sub-groups; one subgroup remained untreated on day 25, another subgroup was administered 4.5-mg/kg of CCcompound1 60 min prior to administration of 3-g/kg of glucose. Blood samples were taken and blood glucose was analyzed as described earlier. […] In contrast, in animals that received chronic (C) treatment with CCcompound1 for 12 days, reduction in blood glucose level was clearly faster. Importantly, acute (A) treatment with CCcompound1 was almost as effective in cancer mice as in normal mice in reducing blood glucose level

C57/BL/6 mice = experiment: Glucose tolerance test with normal mice, CCcompound1 and sub-optimal insulin; type: in vivo; settings: CCcompound1 4.5-mg/kg i.p. 60 min and/or insulin 0.02 IU 15 min prior to glucose
Protocol: In this experiment, a sub-optimal dose of insulin (0.02 international unit-IU) was used to probe if CCcompound1 indeed can enhance the effect of insulin on blood glucose. Again C57/BL/6 female mice weighing 22-23-g and fasted for 14 hours prior to i.p. glucose administration (3-g/kg), were used. None of the animals received any food during the experiment other than glucose. The animals received i.p. injections of 4.5-mg/kg of CCcompound1 and/or 0.02 Unit insulin 60 min and 15 min prior to glucose administration, respectively. Blood samples were taken and glucose concentrations measured as indicated earlier. Each group included six animals. The data are the mean±std. dev. of 6 determinations, i.e. one determination with each of the six animals.

PC-3 human tumors = experiment: PC-3 tumor/cachexia model: tumor weight and body weight; type: in vivo, mice
Protocol: as §1

[1] = 4.5 mg/kg group, day 12 (start of treatment)
[2] = 4.5 mg/kg once daily days 12-24, day 24

Cc1c(OCC(O)C[N+](C)(C)C)cc2c(=O)c3ccccc3sc2c1C.[Cl-] (stereo not shown) [CCcompound 1, [3-(3,4-Dimethyl-9-oxo-9H-thioxanthen-2-yloxy)-2-hydroxypropyl]trimethyl-ammonium chloride]
Blood glucose (ob/ob mice; 4.5-mg/kg daily 13 days, day 14 s.c. 45 min prior to glucose 3-g/kg i.p., 0 min): 10.7 ± 0.2 mM
Blood glucose (ob/ob mice; 4.5-mg/kg daily 13 days, day 14 s.c. 6 hours prior to glucose 3-g/kg i.p., 0 min): 17.8 ± 0.3 mM
Blood glucose (ob/ob mice; s.c. 45 min prior to glucose, 30 min): 11.9 ± 0.4 mM
Blood glucose (ob/ob mice; s.c. 45 min prior to glucose, 60 min): 11.4 ± 0.3 mM
Blood glucose (ob/ob mice; s.c. 45 min prior to glucose, 120 min): 11.0 ± 0.3 mM
Blood glucose (ob/ob mice; s.c. 45 min prior to glucose, 180 min): 10.9 ± 0.3 mM
Blood glucose (ob/ob mice; s.c. 6 hours prior to glucose, 30 min): 20.7 ± 0.2 mM
Blood glucose (ob/ob mice; s.c. 6 hours prior to glucose, 60 min): 20.2 ± 0.2 mM
Blood glucose (ob/ob mice; s.c. 6 hours prior to glucose, 120 min): 19.6 ± 0.2 mM
Blood glucose (ob/ob mice; s.c. 6 hours prior to glucose, 180 min): 18.9 ± 0.3 mM
Blood glucose (mice with PC-3 tumor; acute (A): 4.5-mg/kg 60 min prior to glucose on day 25, 0 min): 2.3 ± 0.2 mM
Blood glucose (mice with PC-3 tumor; acute (A), 30 min): 5.5 ± 0.6 mM
Blood glucose (mice with PC-3 tumor; acute (A), 60 min): 4.4 ± 0.7 mM
Blood glucose (mice with PC-3 tumor; acute (A), 120 min): 3.5 ± 0.4 mM
Blood glucose (mice with PC-3 tumor; chronic (C): 4.5-mg/kg daily days 12-24, 0 min): 1.8 ± 0.4 mM
Blood glucose (mice with PC-3 tumor; chronic (C), 30 min): 7.1 ± 0.5 mM
Blood glucose (mice with PC-3 tumor; chronic (C), 60 min): 6.5 ± 0.4 mM
Blood glucose (mice with PC-3 tumor; chronic (C), 120 min): 4.9 ± 0.6 mM
Blood glucose (mice with PC-3 tumor; chronic + acute (C + A), 0 min): 2.1 ± 0.5 mM
Blood glucose (mice with PC-3 tumor; chronic + acute (C + A), 30 min): 5.1 ± 0.4 mM
Blood glucose (mice with PC-3 tumor; chronic + acute (C + A), 60 min): 3.9 ± 0.4 mM
Blood glucose (mice with PC-3 tumor; chronic + acute (C + A), 120 min): 3.1 ± 0.3 mM
Blood glucose (C57/BL/6 mice; 0 min): 1.8 ± 0.4 mM
Blood glucose (C57/BL/6 mice; 30 min): 5.1 ± 0.5 mM
Blood glucose (C57/BL/6 mice; 60 min): 4.1 ± 0.4 mM
Blood glucose (C57/BL/6 mice; 120 min): 3.3 ± 0.3 mM
Body weight (lean) (PC-3 human tumors; [1]): 25.0 g
Tumor weight (PC-3 human tumors; [1]): 0.2 ± 0.1 g
Total weight (PC-3 human tumors; 4.5 mg/kg group, day 12 after tumor transplantation (start of treatment)): 25.2 ± 1.3 g
Body weight (lean) (PC-3 human tumors; [2]): 30.3 g
Total weight (PC-3 human tumors; [2]): 31.9 ± 2.5 g
Tumor weight (PC-3 human tumors; [2]): 1.6 ± 0.4 g
Gain in lean body weight (PC-3 human tumors; 4.5 mg/kg, between days 12 and 24): 6.3 g
Reduction of tumor volume (PC-3 human tumors; 4.5 mg/kg, days 12-24): ~50%
